Test results reported in US20100158866A1, “PREDICTION OF HCV TREATMENT RESPONSE” (priority 2008, published 2010).

Experiments:
HCV genotype 1 [1] = assay: Phase 2A clinical trial of RO4588161 with Pegasys with or without ribavirin: HCV RNA viral load and viral response (Roche COBAS TaqMan HCV Test); type: in vivo, human; details: for mean change in viral concentrations (HCV RNA) from baseline at week 4: 4 weeks
Description: (§1) This was a phase 2A, multi-center, randomized, double-blinded (RO4588161 and ribavirin were double-blinded and Pegasys was open labeled), active-controlled, with a parallel-group study which is ongoing. A screening period (time from the first screening assessment to the first administration of test drug) of 35 days preceded the treatment portion of the trial (FIG. 1). The HCV genotype and HCV RNA titer of each patient was confirmed during the screening period and only treatment-naïve patients with HCV genotype-1 and HCV RNA titer […] were eligible for enrollment.
One hundred and seven male and female patients between 18 and 66 years of age were enrolled into the study. Patients were randomized into four treatment groups: • Group A/Dual 1500 [RO4588161 1500 mg oral, twice daily+Pegasys 180 μg subcutaneous, once weeky] for 4 weeks-21 patients, • Group B/Dual 3000 [RO4588161 3000 mg oral, twice daily+Pegasys 180 μg subcutaneous, once weekly] for 4 weeks-34 patients, • Group C/Triple 1500 [RO4588161 1500 mg oral, twice daily+Pegasys 180 μg subcutaneous, once weekly+ribavirin 1000 mg (<75 kg) or 1200 mg […] oral daily] for 4 weeks-31 patients or • Group D/standard of care (SOC) [Pegasys 180 μg subcutaneous, once weekly+ribavirin 1000 mg (<75 kg) or 1200 mg (≧75 kg) oral daily] for 4 weeks-21 patients
Patients meeting all eligibility criteria were randomized to receive RO4588161 in combination with Pegasys with or without ribavirin for 4 weeks or to SOC.
All patients who received at least one dose of study medication would continue to receive open label Pegasys 180 μg sc qw and ribavirin 1000 mg (<75 kg) or 1200 mg (≧75 kg) po qd to complete a total treatment period of 48 weeks.
Randomization was stratified by the PK subcohort (sparse PK versus intensive PK) in a 2:3:3:2 ratio into the following treatment groups (Group A/Dual 1500˜20, Group B/Dual 3000˜30, Group C/Triple 1500˜30, Group D/SOC˜20).
All patients were to have a safety follow up visit at week 8, 4 weeks after the last dose of the experimental drug combination. Patients were to have this 4 week safety follow up visit during their treatment with the standard of care therapy. Patients who have completed a full 48-week course of therapy were followed for 24 weeks post treatment completion.
Pharmacodynamic analysis included the assessment of serum viral load, and viral response at individual clinical visits and an assessment of antiviral resistance development with RO4588161 given in combination with Pegasys with or without ribavirin in treatment naïve patients with chronic HCV genotype 1 virus infection. Viral response was defined as the percentage of patients with undetectable HCV RNA as measured by the Roche COBAS TaqMan HCV Test (<15 IU/mL). Pharmacodynamic data were presented by listings, summary statistics (including means, medians, standard errors, confidence intervals for means, ranges, coefficients of variation, proportions of patients with response and confidence intervals for proportions) and plots of means over time.

[2] = Phase 2A clinical trial of RO4588161: premature withdrawal for safety reasons; type: in vivo, human
Description: as §1
One hundred and seven male and female patients between 18 and 66 years of age were enrolled into the study. Patients were randomized into four treatment groups: • Group A/Dual 1500 [RO4588161 1500 mg oral, twice daily+Pegasys 180 μg subcutaneous, once weeky] for 4 weeks-21 patients, • Group B/Dual 3000 [RO4588161 3000 mg oral, twice daily+Pegasys 180 μg subcutaneous, once weekly] for 4 weeks-34 patients, • Group C/Triple 1500 [RO4588161 1500 mg oral, twice daily+Pegasys 180 μg subcutaneous, once weekly+ribavirin 1000 mg (<75 kg) or 1200 mg […] oral daily] for 4 weeks-31 patients or • Group D/standard of care (SOC) [Pegasys 180 μg subcutaneous, once weekly+ribavirin 1000 mg (<75 kg) or 1200 mg (≧75 kg) oral daily] for 4 weeks-21 patients […]

HCV genotype 1 [3] = assay: Phase II clinical trial of RO5024048 with Pegasys and ribavirin: plasma HCV RNA; type: in vivo, human
Description: Twenty-five (25) patients per Cohort of RO5024048 were enrolled. Twenty (20) patients per cohort received RO5024048 in combination with standard of care (SOC) and five (5) patients per cohort were randomized to receive SOC with a RO5024048 placebo. Patients were screened up to 56 days prior to enrollment. On Day −1, patients visited the clinic for pre-dose assessments. On Day 1, patients received an oral dose of study drug RO5024048 or placebo and Pegasys/ribovarin in the morning with a light meal and at least 240 mL of water.
A majority of dosing occurred on an outpatient basis. Periodically, patients returned to the clinic for study assessments. Early morning on Days 7, 14, 21, and 28, patients were asked to report to the clinic after an overnight fast. Patients received their RO5024048/placebo in combination with Pegasys and Ribovarin with a light meal and 240 mL of water in the morning in the clinic. Patients were followed through Day 56 (28 days after dosing is completed).
After completing four weeks of the combination-dosing regimen followed by at least 4 weeks of SOC dosing (RO5024048 washout), all patients were eligible to receive up to 40 weeks, depending upon genotype, of open label standard of care (SOC) dosing with Pegasys plus ribavirin. Genotype 2 or 3 subjects enrolling in Cohort 4 will receive a total of 24 weeks of Pegasys plus ribovarin. An overview of the study design is outlined in Table 1.

HCV = details: cited from earlier work
[4] = human, in vivo; cited from earlier work

CC(C)C(=O)OC[C@@]1(N=[N+]=[N-])O[C@@H](n2ccc(N)nc2=O)[C@H](OC(=O)C(C)C)[C@@H]1OC(=O)C(C)C [RO4588161, Isobutyric acid (2R,3S,4R,5R)-5-(4-amino-2-oxo-2H-pyrimidin-1-yl)-2-azido-3,4-bis-isobutyryloxy-tetrahydro-furan-2-ylmethyl ester]
mean change in viral concentrations (HCV RNA) from baseline at week 4 (HCV genotype 1 [1]; Dual 1500: RO4588161 1500 mg oral twice daily + Pegasys 180 μg sc once weekly): −3.6 log10 IU/mL | difference in mean change in viral concentrations (HCV genotype 1 [1]; Dual 3000 vs Dual 1500, week 4, printed as 'minus 0.9'): 0.9 log10 IU/mL | mean change in viral concentrations (HCV RNA) from baseline at week 4 (HCV genotype 1 [1]; Triple 1500: RO4588161 1500 mg oral twice daily + Pegasys 180 μg sc once weekly + ribavirin 1000/1200 mg oral daily): −5.2 log10 IU/mL | patients achieving RVR4 (undetectable HCV RNA at four weeks of treatment) (HCV genotype 1 [1]; Triple 1500 group (N=31)): 23 out of the 31 | patients achieving sustained virological response (SVR) at 24 weeks post treatment completion (HCV genotype 1 [1]; Triple 1500 group, of the thirteen patients undetectable at two weeks): Eleven | antiviral effect, non-overlapping 95% confidence intervals (HCV genotype 1 [1]; Triple 1500 over Dual 1500 and SOC): superior antiviral effect | difference in mean change in viral concentrations (HCV genotype 1 [1]; Triple 1500 vs Dual 1500, week 4, printed as 'minus 1.6'): 1.6 log10 IU/mL | difference in mean change in viral concentrations (HCV genotype 1 [1]; Triple 1500 vs SOC, week 4, printed as 'minus 2.8'): 2.8 log10 IU/mL | decrease in the mean HCV RNA (IU/mL) from baseline at week 4 (HCV genotype 1 [1]; all RO4588161 containing groups (Dual 1500, Dual 3000, Triple 1500), 4 weeks treatment, treatment-naive HCV genotype-1 patients): ≥ 3.6 log10 | earliest assessment at which declines in HCV RNA were observed, following the first dose (HCV genotype 1 [1]; first assessment): 72 h | plasma viral load following treatment (HCV genotype 1 [1]; treatment with RO4588161, Pegasys and ribavirin): Dose- and time-dependent decreases | patients who prematurely withdrew for safety reasons from the drug ([2]; among the 104 evaluable patients): 43 patients

CC(C)C(=O)OC[C@H]1O[C@@H](n2ccc(N)nc2=O)[C@](C)(F)[C@@H]1OC(=O)C(C)C [RO5024048, Isobutyric acid (2R,3R,4R,5R)-5-(4-amino-2-oxo-2H-pyrimidin-1-yl)-4-fluoro-3-isobutyryloxy-4-methyl-tetrahydro-furan-2-ylmethyl ester]
whether HCV RNA could be detected at Week 8 (HCV genotype 1 [3]; 1500 mg RO5024048 + Pegasys + ribavirin, patients not undetectable until day 17 (FIG. 4) or day 28 (FIG. 5)): mixed | HCV RNA status on day 56 (Week 8) (HCV genotype 1 [3]; 1500 mg RO5024048 + Pegasys + ribavirin, patients with undetectable HCV RNA at 14 days of treatment (FIG. 3)): all HCV RNA negative | decreases in plasma viral load (HCV genotype 1 [3]; four-week treatment, 1500 mg RO5024048 twice daily with SOC dosing of Pegasys and ribavirin, compared with other dose levels): most notable decreases

NC(=O)c1ncn([C@@H]2O[C@H](CO)[C@@H](O)[C@H]2O)n1 [ribavirin, 1-((2R,3R,4S,5R)-3,4-Dihydroxy-5-hydroxymethyl-tetrahydro-furan-2-yl)-1H-[1,2,4]triazole-3-carboxylic acid amide]
patients who prematurely withdrew for safety reasons from the drug ([2]; both, human, in vivo, 4 weeks): 5 patients | patients in whom serum amino transferase levels are reduced to normal (HCV; monotherapy): 40 % of patients | effect on serum levels of HCV-RNA (HCV; ribavirin monotherapy): does not lower | patients with hemolytic anemia requiring dose reduction or discontinuation of ribavirin therapy [4]: 10-20 % of patients
